Experiment [1] has as its system T1, muscarinic acetylcholine receptor M3 (M1/3R).
T1 construct: gene CHRM3
The experiment in a line: GCaMP6s calcium imaging dose-response (AUC) in primary human OPCs, endogenous M1/M3 receptors. Type of experiment: cell-based.

The target of experiment [2] is T2, metabotropic type 5 glutamate receptor (mGluR5) (Homo sapiens, UniProt P41594).
T2 construct: gene GRM5
Description: GCaMP6s calcium imaging dose-response (AUC) in primary human OPCs, endogenous receptor. Type of experiment: cell-based.

Here are results for two molecules from article PMC9007940, “Oscillatory calcium release and sustained store-operated oscillatory calcium signaling prevents differentiation of human oligodendrocyte progenitor cells” (Scientific Reports, 2022).

pEC50: −log10 of the molar value.

T2 sequence (P41594 21-1212): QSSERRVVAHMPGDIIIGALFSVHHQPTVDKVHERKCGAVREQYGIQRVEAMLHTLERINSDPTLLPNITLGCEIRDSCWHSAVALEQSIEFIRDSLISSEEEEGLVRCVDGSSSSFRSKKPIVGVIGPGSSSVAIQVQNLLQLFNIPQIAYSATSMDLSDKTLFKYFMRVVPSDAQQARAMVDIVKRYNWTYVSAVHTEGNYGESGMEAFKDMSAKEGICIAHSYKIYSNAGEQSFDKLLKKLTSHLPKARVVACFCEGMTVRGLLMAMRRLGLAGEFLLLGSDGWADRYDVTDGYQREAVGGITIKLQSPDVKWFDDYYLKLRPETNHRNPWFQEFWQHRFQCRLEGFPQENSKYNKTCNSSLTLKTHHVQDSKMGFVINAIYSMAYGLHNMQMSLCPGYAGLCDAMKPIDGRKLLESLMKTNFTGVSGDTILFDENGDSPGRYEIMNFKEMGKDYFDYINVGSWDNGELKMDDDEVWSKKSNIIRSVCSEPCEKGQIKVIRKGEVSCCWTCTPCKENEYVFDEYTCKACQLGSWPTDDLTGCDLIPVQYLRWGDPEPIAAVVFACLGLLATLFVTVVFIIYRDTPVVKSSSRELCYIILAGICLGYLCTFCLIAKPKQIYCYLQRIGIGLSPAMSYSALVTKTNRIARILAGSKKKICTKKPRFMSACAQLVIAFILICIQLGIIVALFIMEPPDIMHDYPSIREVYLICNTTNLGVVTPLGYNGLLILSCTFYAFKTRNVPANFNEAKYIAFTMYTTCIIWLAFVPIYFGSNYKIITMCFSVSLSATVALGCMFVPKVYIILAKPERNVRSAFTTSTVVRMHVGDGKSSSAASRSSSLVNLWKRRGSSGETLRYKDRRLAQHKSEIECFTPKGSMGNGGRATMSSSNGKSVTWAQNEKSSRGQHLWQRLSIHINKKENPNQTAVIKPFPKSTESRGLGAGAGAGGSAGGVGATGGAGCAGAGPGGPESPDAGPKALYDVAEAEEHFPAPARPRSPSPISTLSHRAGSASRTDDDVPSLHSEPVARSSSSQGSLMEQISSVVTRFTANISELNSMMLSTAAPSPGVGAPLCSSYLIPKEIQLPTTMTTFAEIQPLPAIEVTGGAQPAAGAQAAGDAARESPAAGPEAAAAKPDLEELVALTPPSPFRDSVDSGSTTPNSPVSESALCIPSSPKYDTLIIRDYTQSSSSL

As for `C[N+](C)(C)CC#CCN1CCCC1=O` [Oxo-M], in experiment [1], the pEC50 was 5.66. As to `NC(C(=O)O)c1cc(O)ccc1Cl` (centres unmarked) [CHPG], the pEC50 in experiment [2] was 2.89.

Usually pEC50 stands for the EC50 on a negative log10 scale, so that one unit is a factor of ten.
